Source: patent US4734376A, “Process for the spectrophotometric measurement of lithium ion employing a chromogenic aza-12-crown-4- ether” (The President & Trustees of the Miami University, priority 1986, dated 1988)
“Also recorded” adds a separate entry of the source. Read-outs that look alike come from different tables or passages of the source. Values belong to the molecule of their own block, whether it stands above or below them.

Legend:
[1] = pH dependence of the structures; type: physicochemical
[2] = Determination of acid dissociation constants K1 and K2 by spectrophotometric titration; type: physicochemical; settings: μ = 0.1 (CsCl), aqueous
Experimental: A 50 ml aqueous solution containing the crown reagent of Example 5 (8.70×10^-5 M), hydrochloric acid (6×10^-4 M), and cesium chloride (0.1 M) was titrated with potassium hydroxide [0.1 M (below pH12), and 1 M (above pH12)], using a Metrohm automatic titrator, Dosimat E535 equipped with Potentiograph E536. The titration was interrupted in every 0.3-1.5 pH increase for the measurement of the absorption spectrum of the solution. A 3-4 ml portion of the solution was taken to a cuvette, the spectrum was recorded on a Hewlett-Packard 8450A spectrometer, and the solution was returned to the titration vessel using a pipet. The magnitude of the spectrum was corrected in order to adjust for dilution upon titration, and corrected results shown in FIG. 1.
[formula] where K1 and K2 denote the acid dissociation constants, and KML a complex formation constant. By assuming no significant complex-formation, an absorbance A at any wavelength and the total concentration of the reagent [HL]t are written as
A=εHLH.spsb.+ [HLH^+ ]+εHL
[HL]+εLL.spsb.- [L^- ] (4)
[HL]t =[HLH^ […] ]+[HL]+[L^- ] (5)
where ε's are molar absorption coefficients. […]
At 342.8 nm and at pH ≥9.7, the absorbance deviating from the isosbestic point reflects the decay of HL and the growth of L-, so that these absorbance data can be used for the evaluation of -logK2 using Eq. (7). […]

[3] = Effect of organic solvents and bases on response to lithium and sodium ion; type: physicochemical
Experimental: Three solvents--chloroform, 1,2-dichloroethane and methylene chloride--werecompared using potassium hydroxide and sodium hydroxide as bases. […] At 0.1M hydroxide, however, large differences were observed both between the cations and between the organic solvents. […] The best stability of the absorbance after the separation of organic layer from the equilibrium system was also observed for this system.
Various other organic solvents were tested as organic media with a 0.01 M potassium hydroxide.

[4] = Determination of extraction constant KML^ex, sodium ion; type: physicochemical; settings: for -log K^ex NaL (extraction constant): solvent chloroform
Excerpt: (§1) Extraction equilibria are illustrated in FIG. 2 and in the following equation: [formula] where [M^+ ]t denotes a total alkali metal concentration. By assuming [L^-a ]>>[HLa ]+[MLa ], and [M^+ ]t >>[HL]t,
(§2) [HL]t =[HLo ]+[MLo ]+[L^-a ] (12)
(§3) Combining Eq. (8), (11), (12), and (13) gives [formula] where Δε=εMLo -εHLo, and E° denotes the E value in the absence of the metal ion in the system (E°=^ε HLo). […] The absorbance at the isosbestic point 401.4 nm shown in FIG. 1 gives εL.spsb.-.sbsb.a, so that the values of E and Eo, which are necessary for the plot, can be obtained experimentally.
(§4) Determination of the partition equilibrium system was made in a manner similar to that employed in Example 7. The concentrations [HL]t, [M^+ ]t, and [OH^- ] were 5.35×10^-5 M, 4×10^-3 M-2 M (as chloride), and 10^-2 M-10^-1 M (as potassium hydroxide), respectively. Chloroform was used as the organic medium.
(§5) In order to confirm the important assumption [La^- ]>>[HLa]+[MLa ], Eq.(11) (the left equation) was used for the evaluation of E instead of Eq.(15), which was derived from Eq.(11) under the assumption, and the obtained extraction constants compared with those obtained using Eq.(15). When Eq.(11) was applied, the species HLo and MLo in the organic layer were extracted into 0.1M hydrochloric acid as HLH^+, and the concentration of HLH+was determined spectrophotometrically and equated to [HLo ]+[MLo ]in Eq.(11). The extraction constants obtained in this way are […]

[5] = Effect of sodium ion on lithium determination; type: physicochemical; settings: 30-fold excess of sodium ions to lithium ions (Na+:Li+ weight ratio 30:1); versus Li+ alone; chloroform layer (Example 9: 400 nm)
Experimental: The effect of sodium ion in the system was determined in a procedure similar to that used in Example 7. A series of six round-bottomed flasks containing 5 ml of chloroform, and 5 ml of an aqueous solution containing aza-12-crown-4 reagent (6.7×10^-4 M), lithium chloride (1×10^-4 =0.694 μg ml^-1), and a variable amount of sodium chloride [sodium chloride was added to five of these flasks in 0.001M increments whereby the [NaCl]aq =1×10^-3 M to 5×10^-3 M (23 μg ml^-1 through 115 μg ml^-1); one flask served as a sodium-free blank]. Absorbance of the organic layer was measured on a spectrophotomer. The results are illustrated in FIG. 4.

[6] = Determination of extraction constant KML^ex, lithium ion; type: physicochemical; settings: for -log K^ex LiL (extraction constant): solvent chloroform
Excerpt: as §1, §2, §3, §4, §5

[7] = μ = 0.1 (CH3)4NCl; reported by Nakamura et al; cited from earlier work
[8] = solvent 1,2-dichloroethane; pH not specified; reported by Nakamura et al; cited from earlier work
[9] = cited from earlier work
[10] = obtained using Eq. (11), organic species back-extracted into 0.1M hydrochloric acid, chloroform

pH at which the structure predominates [1]: greater than 11
SMILES: O=[N+]([O-])c1ccc(O)c(CN2CCOCCOCCOCC2)c1 [ii, 1-(2-oxy-5-nitrobenzyl)1-aza-4,7,10-trioxacyclododecane]

-log K1 (acid dissociation constant) [2]: 5.77 | -log K2 (acid dissociation constant; pK2) [2]: 10.31 | -log K^ex NaL (extraction constant) ([4]; 0.05M KOH): 12.49 | -log K^ex NaL (extraction constant) ([4]; 0.1M KOH): 12.50 | -log KNaL^ex (extraction constant) [4, 10]: 12.47 | pH at which the structure predominates ([1]; listed as iii): approximately 8 | -log K^ex LiL (extraction constant) ([6]; 0.05M KOH): 10.23 | -log K^ex LiL (extraction constant) ([6]; 0.1M KOH): 10.18 | ratio of KLiL^ex to KNaL^ex (selectivity) ([6]; compared with aza-15-crown-5): much greater than the aza-15-crown5 | KLiL^ex smaller than that of prior art aza-15-crown-5, factor ([6]; compared with prior art aza-15-crown-5): smaller by a factor of ten | -log KLiL^ex (extraction constant) [6, 10]: 10.25
SMILES: O=[N+]([O-])c1ccc(O)c(CN2CCOCCOCCOCC2)c1 [aza-12-crown-4, 1-(2-oxy-5-nitrobenzyl)-1-hydro-1-aza-4,7,10-trioxacyclododecane]
sensitivity and interference differences between bases and solvents ([3]; 0.01 M hydroxide, chloroform, 1,2-dichloroethane, methylene chloride, KOH and NaOH): no significant sensitivity and interference differences were observed | sensitivity and sodium interference, bases and solvents ([3]; 0.1M hydroxide, chloroform, 1,2-dichloroethane, methylene chloride, KOH and NaOH): Potassium hydroxide gave higher sensitivity in both chloroform and methylene chloride than sodium hydroxide, but not in 1,2-dichloroethane; also recorded: Methylene chloride exhibited the highest sensitivity when used with potassium hydroxide, but was subject to increased interference by sodium ions; also recorded: The combination of methylene chloride and sodium hydroxide allowed most of the reagent to pass into the organic layer; also recorded: optimum combination of high sensitivity, low interference, and low blank absorption was achieved by a system employing 0.1M potassium hydroxide and chloroform | response / extraction by organic solvent ([3]; organic solvents tested with 0.01 M potassium hydroxide): no response of the reagent to lithium and sodium ion was observed; also recorded: Methyisobutyl-ketone showed only slight extraction of the metal complex; also recorded: No extraction occurred into benzene, carbon tetrachloride, chlorobenzene, and trichlorethylene | response with triethylamine as base ([3]; triethylamine 1M in CHCl3, compared with KOH): the response to lithium ions was smaller and the response to sodium ions was larger | response with triethylamine plus sodium hydroxide ([3]; triethylamine 1M in CHCl3 and sodium hydroxide 0.1M): intermediate response to lithium ions, and the response was not stable | increase in absorbance in presence of sodium ion [5]: 8% | dependence of -log KLiL^ex on hydroxide concentration ([6]; 10^-2 M-10^-1 M KOH, chloroform): not significantly dependent on the hydroxide concentration employed

SMILES: O=[N+]([O-])c1ccc(O)c(CN2CCOCCOCCOCCOCC2)c1 [aza-15-crown-5, N-(2-hydroxy-5-nitrobenzyl)-aza-15-crown-5]
-log K1 (acid dissociation constant) [7]: 5.79 | -log K2 (acid dissociation constant) [7]: 9.69 | -log K^ex NaL (extraction constant) [8]: 9.76 | -log K^ex LiL (extraction constant) ([9]; solvent 1,2-dichloroethane, pH not specified, reported by Nakamura et al): 9.15

pH at which the structure predominates [1]: less than 5
SMILES: O=[N+]([O-])c1ccc(O)c(CN2CCOCCOCCOCC2)c1 [i, 1-(2-hydroxy-5-nitrobenzyl)-1-hydro-1-aza-4,7,10-trioxacyclododecane]

SMILES: C1COCCN2CCOCCN(CCO1)CCOCC2 [cryptand [2,1,1]]
sensitivity to lithium ions ([9]; cryptand itself, without ion pairing agent): not sensitive to lithium ions | extraction of lithium ions compared with reagent of Nakamura et al ([9]; with ion pairing agent resazurin): more selectively and more efficiently
